Results published in ChEMBL document CHEMBL1821662 (Bioorg Med Chem Lett, 2011).

Tests used:
Aurora kinase A = biological target: T1, Aurora kinase A (Homo sapiens, UniProt O14965); experiment: Binding affinity to Aurora A kinase catalytic domain by competitive binding assay
T1 sequence (O14965 whole entry): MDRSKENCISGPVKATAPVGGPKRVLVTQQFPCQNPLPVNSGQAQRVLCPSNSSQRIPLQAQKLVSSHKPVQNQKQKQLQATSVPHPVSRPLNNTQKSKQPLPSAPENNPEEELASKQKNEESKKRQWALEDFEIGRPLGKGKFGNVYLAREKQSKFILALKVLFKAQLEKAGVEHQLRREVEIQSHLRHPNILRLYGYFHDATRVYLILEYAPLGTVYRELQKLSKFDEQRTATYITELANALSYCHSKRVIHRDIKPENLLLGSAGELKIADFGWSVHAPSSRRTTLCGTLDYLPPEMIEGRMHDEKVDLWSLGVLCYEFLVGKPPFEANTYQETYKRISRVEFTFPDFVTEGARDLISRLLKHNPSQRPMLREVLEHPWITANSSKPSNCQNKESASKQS

Aurora kinase B [1] = biological target: T2, Aurora kinase B (Homo sapiens, UniProt Q96GD4); experiment: Binding affinity to Aurora B kinase catalytic domain by competitive binding assay
Aurora kinase B [2] = biological target: T2, Aurora kinase B; experiment: Inhibition of Aurora B kinase assessed as reduction in histone H3 phosphorylation in human HCT116 cells; format: cell-based, HCT-116
HCT-116 [3] = experiment: Antiproliferative activity against human HCT116 cells; format: functional, cell-based
Aurora kinase C = biological target: T3, Aurora kinase C (Homo sapiens, UniProt Q9UQB9); experiment: Binding affinity to Aurora C kinase catalytic domain by competitive binding assay
T3 sequence (Q9UQB9 whole entry): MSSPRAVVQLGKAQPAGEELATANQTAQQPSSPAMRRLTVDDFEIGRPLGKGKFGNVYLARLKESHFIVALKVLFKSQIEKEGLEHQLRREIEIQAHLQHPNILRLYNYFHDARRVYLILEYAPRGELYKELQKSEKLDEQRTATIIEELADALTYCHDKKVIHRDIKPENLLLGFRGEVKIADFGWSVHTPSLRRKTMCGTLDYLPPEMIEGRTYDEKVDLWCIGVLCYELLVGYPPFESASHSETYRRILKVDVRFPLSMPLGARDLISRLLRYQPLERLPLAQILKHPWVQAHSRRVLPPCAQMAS

[4] = Clearance in Sprague-Dawley rat at 1 mg/kg, iv; format: ADME, organism-based; design: dose 1 mg/kg, route intravenous; conditions: in vivo
[5] = Volume of distribution in Sprague-Dawley rat at 1 mg/kg, iv; format: ADME, organism-based; design: dose 1 mg/kg, route intravenous; conditions: in vivo
[6] = Half life in Sprague-Dawley rat at 1 mg/kg, iv; format: ADME, organism-based; design: dose 1 mg/kg, route intravenous; conditions: in vivo
[7] = AUC in Sprague-Dawley rat at 1 mg/kg, iv; format: ADME, organism-based; design: dose 1 mg/kg, route intravenous; conditions: plasma
[8] = AUC in SCID mouse at 60 mg/kg, ip; format: ADME, organism-based; design: dose 60 mg/kg, route intraperitoneal; conditions: plasma
HCT-116 [9] = experiment: Antitumor activity against human HCT116 cells xenografted in nude mouse assessed as tumor suppression dose administered intraperitoneally twice daily; format: functional, cell-based
Mus musculus = experiment: Toxicity in nude mouse xenografted with human HCT116 cells assessed as body weight loss at 37.5 mg/kg, ip BID for 8 days; format: organism-based, HCT-116; design: dose 37.5 mg/kg, route intraperitoneal; conditions: in vivo, 192 h

T2 sequence (Q96GD4 whole entry, the tested form may be a part): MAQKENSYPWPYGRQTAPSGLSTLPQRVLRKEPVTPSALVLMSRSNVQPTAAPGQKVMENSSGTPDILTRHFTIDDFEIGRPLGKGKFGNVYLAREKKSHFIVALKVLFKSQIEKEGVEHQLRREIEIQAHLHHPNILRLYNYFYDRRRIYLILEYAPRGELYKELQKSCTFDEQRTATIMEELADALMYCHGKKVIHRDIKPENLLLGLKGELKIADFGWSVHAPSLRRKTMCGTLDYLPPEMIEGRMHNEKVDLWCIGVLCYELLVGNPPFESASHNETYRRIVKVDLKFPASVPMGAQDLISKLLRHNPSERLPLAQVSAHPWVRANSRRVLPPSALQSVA

SMILES	Kd (Aurora kinase A) [µM]	Kd (Aurora kinase B [1]) [µM]	IC50 (Aurora kinase B [2]) [µM]	IC50 (HCT-116 [3]) [µM]	Kd (Aurora kinase C) [µM]	clearance [4] [mL/min/kg]	Vd [5] [L/kg]	half-life [6] [h]	AUC [7] [µM·h]	AUC [8] [µM·h]	Activity (HCT-116 [9])	Activity (Mus musculus) [%]
Cc1cc(Nc2nc(Sc3ccc(NC(=O)CN4C[C@H](OC5CCCC5)[C@@H](O)C4)cc3)nn3cccc23)n[nH]1	0.011	0.004	0.023	0.006	–	–	–	–	–	–	–	–
Cc1cc(Nc2nc(Sc3ccc(NC(=O)CN4C[C@H](Oc5ccccc5F)[C@@H](O)C4)cc3)nn3cccc23)n[nH]1	0.01	0.009	0.028	0.004	–	–	–	–	–	–	–	–
Cc1cc(Nc2nc(Sc3ccc(NC(=O)CN4C[C@@H](F)C[C@H]4CO)cc3)nn3cccc23)n[nH]1	0.008	0.004	0.028	0.025	–	–	–	–	–	–	–	–
Cc1cc(Nc2nc(Sc3ccc(NC(=O)CN4C[C@@H](O)[C@@H](Oc5ccc(F)cc5)C4)cc3)nn3cccc23)n[nH]1	0.007	0.008	0.084	0.009	–	–	–	–	–	–	–	–
Cc1cc(Nc2nc(Sc3ccc(NC(=O)CN4C[C@H](Oc5cc(F)cc(F)c5)[C@@H](O)C4)cc3)nn3cccc23)n[nH]1	0.026	0.021	0.051	0.007	–	–	–	–	–	–	–	–
Cc1cc(Nc2nc(Sc3ccc(NC(=O)CN4C[C@H](OC(C)(C)C)C[C@@H]4CO)cc3)nn3cccc23)n[nH]1	0.301	0.069	2.49	2.39	–	–	–	–	–	–	–	–
Cc1cc(Nc2nc(Sc3ccc(NC(=O)CN4C[C@H](F)C[C@H]4CO)cc3)nn3cccc23)n[nH]1	0.015	0.009	0.091	0.104	–	–	–	–	–	–	–	–
Cc1cc(Nc2nc(Sc3ccc(NC(=O)CN4C[C@H](Oc5ccc(F)cc5F)[C@@H](O)C4)cc3)nn3cccc23)n[nH]1	0.013	0.017	0.058	0.005	–	–	–	–	–	–	–	–
Cc1cc(Nc2nc(Sc3ccc(NC(=O)CN4CCOCC4)cc3)nn3cccc23)n[nH]1	0.085	0.041	1.83	1.84	0.017	–	–	–	–	–	–	–
Cc1cc(Nc2nc(Sc3ccc(NC(=O)CN4C[C@H](OC(C)(C)C)C[C@H]4CO)cc3)nn3cccc23)n[nH]1	0.009	0.008	0.015	0.008	0.002	52.2	9.77	15.4	0.581	–	–	–
Cc1cc(Nc2nc(Sc3ccc(NC(=O)CN4C[C@H]5C[C@H]5[C@H]4CO)cc3)nn3cccc23)n[nH]1	0.017	0.015	0.179	0.203	–	–	–	–	–	–	–	–
Cc1cc(Nc2nc(Sc3ccc(NC(=O)CN4C[C@H](N)C[C@H]4CO)cc3)nn3cccc23)n[nH]1	0.381	0.144	15	4.7	–	–	–	–	–	–	–	–
COCCO[C@H]1CN(CC(=O)Nc2ccc(Sc3nc(Nc4cc(C)[nH]n4)c4cccn4n3)cc2)C[C@@H]1O	–	0.002	0.049	0.025	–	–	–	–	–	–	–	–
Cc1cc(Nc2nc(Sc3ccc(NC(=O)CN(C)C)cc3)nn3cccc23)n[nH]1	0.031	0.008	0.293	0.37	0.005	–	–	–	–	–	–	–
Cc1cc(Nc2nc(Sc3ccc(NC(=O)C4CC4)cc3)nn3cc(NC(=O)CN4CCC[C@@H]4CO)cc23)n[nH]1	0.01	0.016	6.3	0.536	0.08	–	–	–	–	–	–	–
Cc1cc(Nc2cc(N3CCN(C)CC3)nc(Sc3ccc(NC(=O)C4CC4)cc3)n2)n[nH]1 [TOZASERTIB]	–	–	–	0.028	–	–	–	–	–	–	–	–
Cc1cc(Nc2nc(Sc3ccc(NC(=O)CN4C[C@H](OC(C)C)[C@@H](O)C4)cc3)nn3cccc23)n[nH]1	0.008	0.004	0.023	0.01	–	–	–	–	–	–	–	–
Cc1cc(Nc2nc(Sc3ccc(NC(=O)C4CC4)cc3)nn3cc(NC(=O)N4CCN(C)CC4)cc23)n[nH]1	0.007	0.004	0.19	0.075	0.005	53.3	5.86	8.66	0.757	–	–	–
Cc1cc(Nc2nc(Sc3ccc(NC(=O)C4CC4)cc3)nn3cc(NC(=O)CN4CCCC4)cc23)n[nH]1	0.023	0.049	0.828	0.536	0.013	–	–	–	–	–	–	–

SMILES	Kd (Aurora kinase A) [µM]	Kd (Aurora kinase B [1]) [µM]	IC50 (Aurora kinase B [2]) [µM]	IC50 (HCT-116 [3]) [µM]	Kd (Aurora kinase C) [µM]	clearance [4] [mL/min/kg]	Vd [5] [L/kg]	half-life [6] [h]	AUC [7] [µM·h]	AUC [8] [µM·h]	Activity (HCT-116 [9])	Activity (Mus musculus) [%]
Cc1cc(Nc2nc(Sc3ccc(NC(=O)CN4CC(=NO)[C@@H](OC(C)(C)C)C4)cc3)nn3cccc23)n[nH]1 (mixture of isomers)	0.009	0.005	0.028	0.008	–	–	–	–	–	–	–	–
Cc1cc(Nc2nc(Sc3ccc(NC(=O)CNC4CC4)cc3)nn3cccc23)n[nH]1	0.032	0.041	0.288	0.364	0.006	–	–	–	–	–	–	–
Cc1cc(Nc2nc(Sc3ccc(NC(=O)CN4C[C@H](OCC5CC5)[C@@H](O)C4)cc3)nn3cccc23)n[nH]1	0.007	0.002	0.023	0.01	–	–	–	–	–	–	–	–
Cc1cc(Nc2nc(Sc3ccc(NC(=O)CNC4CCCC4)cc3)nn3cccc23)n[nH]1	0.143	0.042	0.655	0.365	0.014	–	–	–	–	–	–	–
Cc1cc(Nc2nc(Sc3ccc(NC(=O)C4CC4)cc3)nn3cc(NC(=O)CN4CCOCC4)cc23)n[nH]1	0.007	0.009	0.42	0.16	0.003	–	–	–	–	–	–	–
Cc1cc(Nc2nc(Sc3ccc(NC(=O)CN4CC(F)(F)C[C@H]4CO)cc3)nn3cccc23)n[nH]1	0.008	0.005	0.029	0.025	0.002	–	–	–	–	–	–	–
Cc1cc(Nc2nc(Sc3ccc(NC(=O)CN4C[C@H](O)[C@@H](F)C4)cc3)nn3cccc23)n[nH]1	0.005	0.001	0.047	0.033	–	–	–	–	–	–	–	–
Cc1cc(Nc2nc(Sc3ccc(NC(=O)CN4C[C@H](OC(C)(C)C(F)(F)F)[C@@H](O)C4)cc3)nn3cccc23)n[nH]1	0.006	0.004	0.027	0.009	–	–	–	–	–	–	–	–
Cc1cc(Nc2nc(Sc3ccc(NC(=O)CN4C[C@H](Oc5ccc(F)cc5)[C@@H](O)C4)cc3)nn3cccc23)n[nH]1	0.015	0.008	0.044	0.005	–	25.2	2.93	3.36	1.17	47.5	Dose-dependent effect	> 20
Cc1cc(Nc2nc(Sc3ccc(NC(=O)C4CC4)cc3)nn3cccc23)n[nH]1	0.012	0.02	0.431	0.345	0.004	28.5	2.15	10.8	2.34	–	–	–
CCC(C)(C)O[C@H]1CN(CC(=O)Nc2ccc(Sc3nc(Nc4cc(C)[nH]n4)c4cccn4n3)cc2)C[C@@H]1O	0.008	0.004	0.028	0.009	–	–	–	–	–	–	–	–
Cc1cc(Nc2nc(Sc3ccc(NC(=O)C4CC4)cc3)nn3cc(NC(=O)CCN4CCCCC4)cc23)n[nH]1	0.038	0.037	0.85	0.101	0.01	–	–	–	–	–	–	–
Cc1cc(Nc2nc(Sc3ccc(NC(=O)CN4CCC[C@H]4CO)cc3)nn3cccc23)n[nH]1	0.014	0.004	0.146	0.148	0.001	–	–	–	–	–	–	–
Cc1cc(Nc2nc(Sc3ccc(NC(=O)CN4C[C@H](OC(C)(C)C)[C@@H](O)C4)cc3)nn3cccc23)n[nH]1	0.012	0.005	0.016	0.004	–	45	18.3	11.2	0.644	–	–	–
Cc1cc(Nc2nc(Sc3ccc(NC(=O)CN4C[C@H](O)C[C@H]4CO)cc3)nn3cccc23)n[nH]1	0.058	0.015	0.637	0.596	–	–	–	–	–	–	–	–
Cc1cc(Nc2nc(Sc3ccc(NC(=O)CN4C[C@H](Oc5cccc(F)c5)[C@@H](O)C4)cc3)nn3cccc23)n[nH]1	0.017	0.01	0.051	0.007	–	–	–	–	–	–	–	–
Cc1cc(Nc2nc(Sc3ccc(NC(=O)CN4C[C@H](SC(C)(C)C)C[C@H]4CO)cc3)nn3cccc23)n[nH]1	0.111	0.039	1.79	1.61	–	–	–	–	–	–	–	–
Cc1cc(Nc2nc(Sc3ccc(NC(=O)CN4C[C@H](Oc5ccc(F)cc5)C[C@H]4CO)cc3)nn3cccc23)n[nH]1	0.053	0.021	0.078	0.024	–	–	–	–	–	–	–	–
